Literature values in patent US8455667B2, “Duloxetine compositions in the form of a powder for suspension in a liquid” (priority 2005, dated 2013).

What was measured:
histaminergic receptors = settings: in vitro
[1] = in vivo
cholinergic receptors = settings: in vitro
dopaminergic receptors = settings: in vitro
adrenergic receptors = settings: in vitro

Structure (SMILES): CNCC[C@H](Oc1cccc2ccccc12)c1cccs1 [Duloxetine, (S)-N-methyl-3-(1-naphthyloxy)-3-(2-thienyl) propan-1-amine]
- affinity for histaminergic receptors (histaminergic receptors): no significant affinity
- mean plasma elimination half-life [1]: 12.1 h
- inhibition of monoamine oxidase (MAO) (monoamine oxidase (MAO)): does not inhibit
- affinity for cholinergic receptors (cholinergic receptors): no significant affinity
- dosage hydrolyzed to 1-naphthol (pH 1.0, within one hour): 50%
- dosage degraded to 1-Naphthol (pH 2.0, in one hour): 10%
- time for 10% degradation (pH 4.0): up to 63 hours
- affinity for dopaminergic receptors (dopaminergic receptors): no significant affinity
- affinity for adrenergic receptors (adrenergic receptors): no significant affinity
